Tests used:
[1] = tested on: WI-38 (human fetal lung fibroblasts); assay: MTT cytotoxicity assay, normal cell line WI-38; type: cell-based; conditions: Homo sapiens, normal WI-38 cells, 50% cell growth inhibition after 72 h of drug exposure, read-out: IC50(μM) WI38
Method: (§1) The cytotoxic activities of target compounds were evaluated against HT-29 (human colon cancer), MDA-MB-231 (human breast cancer), U87MG (human glioblastoma), H460 (human lung cancer), A549 (non-small-cell lung adenocarcinoma), HL-60 (human leukemic) cancer cell lines and one normal cell line WI-38 (human fetal lung fibroblasts) together with references DHA and cisplatin by a MTT assay.
(§2) The cytotoxic activities of compounds 3a–h and 6a–j were evaluated with the HT-29, MDA-MB-231, U87MG, H460, A549, HL-60 cancer cell lines and one normal cell line, WI-38, by the standard MTT assay in vitro [20], with DHA as the positive control. The cell lines were cultured in minimum essential medium (MEM) supplement with 10% fetal bovine serum (FBS). Approximately 4 × 10^3 cells, suspended in MEM medium, were plated on to each well of a 96-well plate and incubated in 5% CO2 at 37 °C for 24 h. The test compounds at indicated final concentrations were added to the culture medium and the cell cultures were continued for 72 h. Fresh MTT was added to each well at a terminal concentration of 5 μg/mL and incubated with cells at 37 °C for 4 h. The formazan crystals were dissolved in 100 μL DMSO each well, and the absorbency at 492 nm (for absorbance of MTT formazan) and 630 nm (for the reference wavelength) was measured with the ELISA reader. All of the compounds were tested twice in each of the cell lines. The results expressed as IC50 (inhibitory concentration 50%) were the averages of two determinations and calculated using the Bacus Laboratories Incorporated Slide Scanner (Bliss) software.

[2] = tested on: HT-29 (human colon cancer); assay: MTT cytotoxicity assay, HT-29; type: cell-based; conditions: Homo sapiens, HT-29 cells, 50% cell growth inhibition after 72 h of drug exposure, read-out: IC50(μM) HT29
Method: as §1, §2

[3] = tested on: A549 (non-small-cell lung adenocarcinoma); assay: MTT cytotoxicity assay, A549; type: cell-based, human; conditions: Homo sapiens, A549 cells, 50% cell growth inhibition after 72 h of drug exposure
Method: as §1, §2

[4] = tested on: H460 (human lung cancer); assay: MTT cytotoxicity assay, H460; type: cell-based; conditions: Homo sapiens, NCI-H460; H460 cells, 50% cell growth inhibition after 72 h of drug exposure, MTT
Method: as §1, §2

[5] = tested on: U87MG (human glioblastoma); assay: MTT cytotoxicity assay, U87MG; type: cell-based; conditions: Homo sapiens, U-87 MG; U87MG cells, 50% cell growth inhibition after 72 h of drug exposure, MTT
Method: as §1, §2

[6] = tested on: MDA-MB-231 (human breast cancer); assay: MTT cytotoxicity assay, MDA-MB-231; type: cell-based; conditions: Homo sapiens, MDA-MB-231 cells, 50% cell growth inhibition after 72 h of drug exposure
Method: as §1, §2

[7] = tested on: HL-60 (human leukemic); assay: MTT cytotoxicity assay, HL-60; type: cell-based; conditions: Homo sapiens; HL-60 cells, 50% cell growth inhibition after 72 h of drug exposure, MTT
Method: as §1, §2

Row | melting point [°C] | Compound | IC50 [1] [µM] | IC50 [2] [µM] | IC50 [3] [µM] | IC50 [4] [µM] | IC50 [5] [µM] | IC50 [6] [µM] | IC50 [7] [µM]
1 | 152 to 154 | C[C@@H]1CC[C@H]2[C@@H](C)C(OCCNC(=O)c3ccc(COc4ccc(/C=C/S(=O)(=O)Nc5ccc(F)c(C(F)(F)F)c5)cc4)cc3)O[C@@H]3O[C@@]4(C)CC[C@@H]1[C@]32OO4 (stereo partly drawn) [Compound 6j, (E)-N-(2-(10β-Dihydroartemisinoxy)ethyl)-4((4-(2-(N-(3-trifluoromethyl-4fluorophenyl)sulfamoyl)vinyl)phenoxy)methyl)benzamide] | 30.4 | 0.38 | 2.78 | 5.31 | 3.27 | 1.05 | 1.27
2 | 142 to 145 | C[C@@H]1CC[C@H]2[C@@H](C)C(OCCNC(=O)c3ccc(COc4ccc(/C=C/S(=O)(=O)Nc5ccccc5)cc4)cc3)O[C@@H]3O[C@@]4(C)CC[C@@H]1[C@]32OO4 (stereo partly drawn) [Compound 6a, (E)-N-(2-(10β-Dihydroartemisinoxy)ethyl)-4((4-(2-(N-phenylsulfamoyl)vinyl)phenoxy)methyl)benzamide] | 20 | 0.98 | 3.21 | 5.28 | 6.47 | 2.26 | 2.41
3 | 144 to 146 | C[C@@H]1CC[C@H]2[C@@H](C)C(OCCOc3ccc(/C=C/S(=O)(=O)Nc4c(Cl)cccc4Cl)cc3)O[C@@H]3O[C@@]4(C)CC[C@@H]1[C@]32OO4 (stereo partly drawn) [Compound 3h, (E)-2-(4-(2-(10β-Dihydroartemisinoxy)ethoxy)phenyl)-N-(2,6-dichlorophenyl)ethenesulfonamide] | 20.7 | 0.49 | 4.33 | 1.28 | 2.51 | 1.07 | 0.14
4 | 136 to 138 | Cc1ccccc1NS(=O)(=O)/C=C/c1ccc(OCCOC2O[C@@H]3O[C@@]4(C)CC[C@H]5[C@H](C)CC[C@@H]([C@H]2C)[C@@]35OO4)cc1 (stereo partly drawn) [Compound 3e, (E)-2-(4-(2-(10β-Dihydroartemisinoxy)ethoxy)phenyl)-N-(2-methylphenyl)ethenesulfonamide] | 16.4 | 0.86 | 7.32 | 1.58 | 2.73 | 1.64 | 2.37
5 | 137 to 138 | C[C@@H]1CC[C@H]2[C@@H](C)C(OCCOc3ccc(/C=C/S(=O)(=O)Nc4cccc(Cl)c4)cc3)O[C@@H]3O[C@@]4(C)CC[C@@H]1[C@]32OO4 (stereo partly drawn) [Compound 3b, (E)-2-(4-(2-(10β-Dihydroartemisinoxy)ethoxy)phenyl)-N-(3-chlorophenyl)ethenesulfonamide] | 23.9 | 0.78 | 4.48 | 7.32 | 3.51 | 1.61 | 0.75
6 | 143 to 145 | Cc1ccccc1NS(=O)(=O)/C=C/c1ccc(OCc2ccc(C(=O)NCCOC3O[C@@H]4O[C@@]5(C)CC[C@H]6[C@H](C)CC[C@@H]([C@H]3C)[C@@]46OO5)cc2)cc1 (stereo partly drawn) [Compound 6e, (E)-N-(2-(10β-Dihydroartemisinoxy)ethyl)-4((4-(2-(N-(2-methylphenyl)sulfamoyl)vinyl)phenoxy)methyl)benzamide] | 16.4 | 2.09 | 5.47 | 1.92 | 3.65 | 2.1 | 3.21

Reference: publication PMC6270595, “Synthesis and Cytotoxicity of Novel 10-Substituted Dihydroartemisinin Derivatives Containing N-Arylphenyl-ethenesulfonamide Groups” (Molecules, 2013)
